Data on 21 molecules can be found in ChEMBL document CHEMBL4011595, “Design, synthesis and structure-activity relationship studies of novel free fatty acid receptor 1 agonists bearing amide linker” (Bioorg Med Chem, 2017).

Test [1] concerns Mus musculus. Description: Antidiabetic activity in HFD/STZ-induced type2 diabetic C57BL/6 mouse assessed as decrease in blood glucose AUC at 20 mg/kg, po administered as single dose 60 mins prior to glucose challenge measured 120 mins post dose by OGTT relative to control. Format: functional. Details: scale not given: the % may be the effect or the level left.
The target of test [2] is T1, Free fatty acid receptor 1 (Homo sapiens, UniProt O14842). Description: Agonist activity at human FFA1 expressed in CHO cells assessed as increase in intracellular Ca2+ flux at 1 uM measured for 90 secs by Fluo4-AM dye based FLIPR assay relative to control. Format: functional, cell-based.
Test [3] has as its system Mus musculus. Description: Anti-diabetic activity in ICR mouse assessed as reduction in blood glucose level at 200 mg/kg, po pretreated for 60 mins followed by glucose challenge measured after 120 mins by OGTT relative to control. More on the design: scale not given: the % may be the effect or the level left. Format: functional.
For test [4], the system named is Mus musculus. Description: Decrease in plasma glucose level in po dosed ICR mouse 60 mins before oral glucose challenge by OGTT method. Conditions: TDE = time-dependent effect. Format: functional, organism-based.
The subject of test [5] is Mus musculus. Put plainly: Anti-diabetic activity in ICR mouse assessed as reduction in blood glucose AUC at 50 mg/kg, po pretreated for 60 mins followed by glucose challenge measured after 120 mins by OGTT relative to control. Format: functional. Details: scale not given: the % may be the effect or the level left.
Test [6] deals with Mus musculus. Description: Antidiabetic activity in HFD/STZ-induced type2 diabetic C57BL/6 mouse assessed as decrease in blood glucose excursion administered as single oral dose pretreated for 60 mins followed by glucose challenge after 120 mins by OGTT. Format: functional.
Test [7] concerns Mus musculus. Put plainly: Anti-diabetic activity in ICR mouse assessed as reduction in blood glucose level at 50 mg/kg, po pretreated for 60 mins followed by glucose challenge measured after 120 mins by OGTT relative to control. The format is functional. Details: scale not given: the % may be the effect or the level left.
For test [8], the system named is Mus musculus. Put plainly: Antidiabetic activity in HFD/STZ-induced type2 diabetic C57BL/6 mouse assessed as decrease in blood glucose AUC at 100 mg/kg, po administered as single dose 60 mins prior to glucose challenge measured 120 mins post dose by OGTT relative to control. Format: functional. Details: scale not given: the % may be the effect or the level left.

The target in test [9] is T1, Free fatty acid receptor 1. Description: Agonist activity at FFA1 (unknown origin).

T1 sequence (O14842 whole entry): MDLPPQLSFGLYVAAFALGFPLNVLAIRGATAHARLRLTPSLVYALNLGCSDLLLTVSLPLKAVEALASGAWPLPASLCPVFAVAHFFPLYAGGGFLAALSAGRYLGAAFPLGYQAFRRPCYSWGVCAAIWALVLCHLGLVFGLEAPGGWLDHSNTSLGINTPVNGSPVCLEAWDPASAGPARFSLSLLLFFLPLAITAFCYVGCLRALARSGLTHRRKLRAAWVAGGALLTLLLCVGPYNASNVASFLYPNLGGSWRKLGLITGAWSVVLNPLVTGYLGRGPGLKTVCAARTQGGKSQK

Regarding `Cc1cc(OCCCS(C)(=O)=O)cc(C)c1-c1cccc(COc2ccc3c(c2)OC[C@H]3CC(=O)O)c1` [FASIGLIFAM], the Activity in test [1] was determined as 39.1%; in [2] it was 96.3%.

As for `COc1cccc(C(=O)Nc2ccc(CCC(=O)O)cc2)c1`, the Activity in test [2] amounted to 19.8%.

On to `CN(C)C(=N)NC(=N)N` [METFORMIN], for which, in test [3], the Activity turned out to be 27.8%.

Take `O=C(O)CCc1ccc(NC(=O)c2ccc(Cl)cc2)cc1`: in test [2], the Activity is 17.9%.

In the case of `O=C(O)CCc1ccc(NC(=O)c2ccccc2Cl)cc1`, in [2], the Activity was found to be 7.73%.

`O=C(O)CCc1ccc(NC(=O)c2ccccc2)cc1`: the Activity in test [2] stood at 18.8%.

On to `Cc1cccc(C(=O)Nc2ccc(CCC(=O)O)cc2)c1`, for which the Activity result in test [4] was “Tde”; in test [2] it was 29.4%; in test [5], 20.3%.

On to `Cc1cccc(C)c1-c1cccc(C(=O)Nc2ccc(CCC(=O)O)cc2)c1`, for which the Activity entry was “Tde” in test [4]; “Dose-dependent effect” in test [6]; 45.8% in test [2]; 23.7% in test [5]; 23.7% in test [7]; 29.1% in test [8].

In the case of `O=C(O)CCc1ccc(NC(=O)c2cccs2)cc1`, the Activity in test [2] was 13.8%.

In turn, `CC#C[C@@H](CC(=O)O)c1ccc(NC(=O)C(=O)Nc2cccc(C(C)(C)C)c2)cc1` registered an EC50 in [9] of 4 nM.

Take `O=C(O)CCc1ccc(NC(=O)c2cccc(Oc3ccccc3)c2)cc1`: the Activity entry in test [4] is “Tde”; in [2] it was 34.3%; in [5], 12.8%.

For `O=C(O)CCc1ccc(NC(=O)c2cccnc2)cc1`, in test [2], the Activity amounted to 4.29%.

For `O=C(O)CCc1ccc(NCc2cccc(Oc3ccccc3)c2)cc1`, the Activity in [2] worked out at 83.8%.

Take `O=C(O)CCc1ccc(NC(=O)c2ccsc2)cc1`: the Activity in test [2] was 15.4%.

For `O=C(O)CCc1ccc(NC(=O)c2cccc(Cl)c2)cc1`, the Activity result in test [4] was “Tde”; in [2] it was 25.4%.

For `O=C(O)c1ccc(NC(=O)c2ccc(C(=O)c3ccccc3)cc2)cc1`, the Activity in test [2] worked out at 15.3%.

For the molecule `CC(C)(C)c1ccc(C(=O)Nc2ccc(CCC(=O)O)cc2)cc1`, the Activity entry was “Tde” in test [4] and 21.4% in test [2].

With `Cc1ccccc1C(=O)Nc1ccc(CCC(=O)O)cc1`, the Activity in [2] came to 5.67%.

For the molecule `COc1ccccc1C(=O)Nc1ccc(CCC(=O)O)cc1`, the Activity in test [2] came out at 1.26%.

For `Cc1ccc(C(=O)Nc2ccc(CCC(=O)O)cc2)cc1`, the Activity in test [2] worked out at 19.4%.

Take `O=C(O)CCc1ccc(NC(=O)c2ccccc2[N+](=O)[O-])cc1`: the Activity in [2] came to 0.19%.

In general, EC50 refers to the concentration needed to bring the measured effect to its halfway point.
